Assay results reported in patent US11459339B2, “Biaryl derivative, preparation method thereof and pharmaceutical application thereof” (Abbisko Therapeutics Co., Ltd., priority 2018, dated 2022).
Where two headings read alike, the source gives them in different places.

Experiments:
[1] = target: interaction between PD-1 and PD-L1 expressed on cell surfaces (Homo sapiens (Human), UniProt Q9NZQ7); experiment: Jurkat reporter gene cellular assay (Jurkat/NF-κB-luc/PD1 cells cocultured with Raji-PD-L1 cells, OKT-3 stimulation); type: cell-based
Method in brief: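 Jurkat cells stably expressing human PD-1 and NF-κB-luciferase were cocultured with Raji cells stably expressing human PD-L1 under OKT-3 stimulation, with compound present. Luminescence was read after 6 h.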

[2] = target: interaction between PD-1 and PD-L1 (Homo sapiens (Human), UniProt Q9NZQ7); experiment: PD1-PDL1 HTRF binding activity test (Cisbio PD-1/PD-L1 binding assay kit)
[3] = Pharmacokinetic assay in mice, per oral administration; type: in vivo; conditions: ICR mice
Source text: C. Pharmacokinetic Assay in Mice
The purpose of this study was to study the pharmacokinetic behaviors of some compounds of the present invention, and administration routes were: per oral administration (PO) to ICR mice:
The compounds used in this test came from the compounds of the specific examples of the present invention.
ICR mice male N=3 original source: Shanghai Sippr-BK Laboratory Animal Co. Ltd.
2.3 Preparation and Administration of Medicaments
The compounds were weighed, and dissolved in solvent of 0.5% SDS+0.5% CMCNa. The mixture solutions were mixed well by shaking and ultrasonic treatment to obtain colorless clear solutions. The solutions were orally administered to nine mice after an overnight fast. The dosage of administration was 10 mg/kg (or 30 mg/kg).
With about 90 μL/time point, blood was drawn from the submaxillary vein, and heparin sodium was added for anticoagulation. The blood samples were placed onto the ice, and were centrifuged (centrifugation conditions: 8000 r/min, 6 min, 2-8° C.) within 1 hr to obtain plasmas. The time points for blood sampling were at 0 hr, 0.25 hr, 0.5 hr, 1 hr, 2 hrs, 4 hrs, 6 hrs, 8 hrs and 24 hrs after administration. The samples were stored in a refrigerator at −20° C.
40 μL of plasma sample was added to 160 μL of cold acetonitrile containing an internal standard, and the mixture solution was vortexed for 3 min and centrifuged at 11,000 r/min for 5 min. 100 μL of supernate was taken and added to 100 μL of water, and 5 μL of the sample was taken and analyzed by LC/MS/MS. Only the original compounds were analyzed for examples 1, 3, 5, 8, 46 and 141 (for results, see table 2); and both the original compounds and possible products of ester hydrolysis, namely example 2, 27, 65 and 105, were analyzed for examples 4, 26, 64 and 104 (for results, see table 3).

[4] = male, mouse, plasma, PO 10 mg/kg, original compound analyzed
[5] = male, mouse, plasma, PO 10 mg/kg, original compound analyzed, class symbol
[6] = male, mouse, PO 10 mg/kg, plasma, original compound analyzed, class symbol, read-out: Cmax
[7] = NF-κB-luc reporter activation fold, 6 hrs, read-out: Cell Activity EC50
[8] = read-out: PD1-PDL1 HTRF Binding Activity IC50
[9] = male, mouse, plasma, PO 30 mg/kg, original compound (ester) analyzed

Sequence of interaction between PD-1 and PD-L1 (Q9NZQ7 19-238): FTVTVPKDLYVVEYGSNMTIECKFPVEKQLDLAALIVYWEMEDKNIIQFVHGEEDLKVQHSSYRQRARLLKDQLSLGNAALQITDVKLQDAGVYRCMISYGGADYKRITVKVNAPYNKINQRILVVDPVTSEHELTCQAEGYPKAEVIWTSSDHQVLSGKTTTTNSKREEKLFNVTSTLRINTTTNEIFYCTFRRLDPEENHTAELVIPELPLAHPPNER
Sequence of interaction between PD-1 and PD-L1 expressed on cell surfaces (Q9NZQ7 19-290): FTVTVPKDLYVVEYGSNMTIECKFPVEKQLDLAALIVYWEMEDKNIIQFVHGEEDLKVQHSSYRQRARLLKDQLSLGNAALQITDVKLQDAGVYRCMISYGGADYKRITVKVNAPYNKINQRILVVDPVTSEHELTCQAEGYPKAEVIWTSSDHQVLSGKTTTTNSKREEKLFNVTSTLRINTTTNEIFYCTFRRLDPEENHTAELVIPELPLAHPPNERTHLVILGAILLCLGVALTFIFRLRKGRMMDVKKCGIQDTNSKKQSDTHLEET

| Compound | MRT [3, 4] | Tmax [3, 4] | half-life [3, 4] | AUC(0-t) [3, 5] | Cmax [3, 6] | EC50 [1, 7] | IC50 [2, 8] | further results |
| --- | --- | --- | --- | --- | --- | --- | --- | --- |
| Cc1c(NC(=O)c2ccc(CNCCO)cn2)cccc1-c1cccc(NC(=O)c2ccc(CNCCO)cn2)c1C [Example 1, N,N′-(2,2′-dimethyl-[1,1′-biphenyl]-3,3′-diyl)bis(5-(((2-hydroxyethyl)amino)methyl)picolinamide)] | 3.3 h | 1 h | 2.4 h | ≤ 500 ng·h/mL | ≤ 100 ng/mL |  |  | EC50 [1]: 137 nM; IC50 [2]: 0.17 nM |
| COC(=O)[C@@H](CO)NCc1cnc(C(=O)Nc2cccc(-c3cccc(NC(=O)c4cc(OC)c(CN[C@H](CO)C(=O)OC)cn4)c3C)c2C)cc1OC [Example 4, dimethyl 2,2′-((((((2,2′-dimethyl-[1,1′-biphenyl]-3,3′-diyl)bis(azanediyl))bis(carbonyl))bis(4-methoxypyridine-6,3-diyl))bis(methylene))bis(azanediyl))(2R,2′R)-bis(3-hydroxypropanoate)] |  |  |  |  |  | 1340 nM | 0.064 nM | Cmax ([3]; PO 30 mg/kg, original compound (ester) analyzed): BQL; ester hydrolysis in the bodies of the mice after oral administration [3]: rapidly became corresponding acids |
| Cc1cc(C(=O)Nc2cccc(-c3cccc(NC(=O)c4cc(C)c(CNC(CO)CO)cn4)c3C)c2C)ncc1CNC(CO)CO [Example 8, N,N′-(2,2′-dimethyl-[1,1′-biphenyl]-3,3′-diy)bis(5-(((1,3-dihydroxypropan-2-yl)amino)methyl)-4-methylpicolinamide)] | 5.4 h | 2 h | 3 h | 500 to 2000 ng·h/mL |  | 186 nM | 0.41 nM | Cmax ([3]; male, mouse, PO 10 mg/kg, plasma, original compound analyzed, read-out: Cmax): 319 ng/mL |
| COC(=O)[C@@H]1CCCCN1Cc1cnc(C(=O)Nc2cccc(-c3cccc(NC(=O)c4cc(C)c(CN5CCCC[C@H]5C(=O)OC)cn4)c3C)c2C)cc1C [Example 26, dimethyl 1,1′-(((((2,2′-dimethyl-[1,1′-biphenyl]-3,3′-diyl)bis (azanediyl))bis(carbonyl))bis (4-methylpyridine-6,3-diyl))bis(methylene))(2S,2′S)-bis (piperidine-2-carboxylate)] |  |  |  |  |  |  | 65.3 nM | MRT [3, 9]: 7 h; Tmax [3, 9]: 6 h; half-life [3, 9]: 3.6 h; AUC(0-t) ([3]; male, mouse, plasma, PO 30 mg/kg, original compound (ester) analyzed, class symbol): > 2000 ng·h/mL; Cmax ([3]; male, mouse, plasma, PO 30 mg/kg, original compound (ester) analyzed, class symbol, read-out: Cmax): > 500 ng/mL; ester hydrolysis in the bodies of the mice after oral administration [3]: no product of ester hydrolysis was detected |
| Cc1cc(C(=O)Nc2cccc(-c3ccccc3)c2C)ncc1CNCCO [Positive compound, reference compound] |  |  |  |  |  | > 10000 nM | 2.4 nM |  |

Further compounds by falling IC50 [2, 8], results first:

| MRT [3, 4] | Tmax [3, 4] | half-life [3, 4] | AUC(0-t) [3, 5] | Cmax [3, 6] | EC50 [1, 7] | IC50 [2, 8] | Compound | further results |
| --- | --- | --- | --- | --- | --- | --- | --- | --- |
|  |  |  |  |  | 2710 nM | 15.1 nM | Cc1c(NC(=O)c2cc(C3CC3)c(CNCC(F)(F)F)cn2)cccc1-c1cccc(NC(=O)c2cc(C3CC3)c(CNCC(F)(F)F)cn2)c1C [Example 140, N,N′-(2,2′-dimethyl-[1,1′-biphenyl]-3,3′-diyl)bis(4-cyclopropyl-5-(((2,2,2-trifluoroethyl)amino)methyl)picolinamide)] |  |
| 10.2 h | 2 h | 8.3 h |  | 100 to 500 ng/mL | 64 nM | 0.36 nM | Cc1cc(C(=O)Nc2cccc(-c3cccc(NC(=O)c4cc(C)c(CNCCO)cn4)c3C)c2C)ncc1CNCCO [Example 5, N,N′-(2,2′-dimethyl-[1,1′-biphenyl]-3,3′-diyl)bis(5-(((2-hydroxyethyl)amino)methyl)-4-methylpicolinamide)] | AUC(0-t) [3, 4]: 1680 ng·h/mL |
| 16.7 h | 0.5 h | 12.9 h | > 2000 ng·h/mL | 100 to 500 ng/mL | 37 nM | 0.2 nM | COc1cc(C(=O)Nc2cccc(-c3cccc(NC(=O)c4cc(OC)c(CNCCO)cn4)c3C)c2C)ncc1CNCCO [Example 3, N,N′-(2,2′-dimethyl-[1,1′-biphenyl]-3,3′-diyl)bis(5-(((2-hydroxyethyl)amino)methyl)-4-methoxypicolinamide)] |  |
